Data as given in PMC6372683, “Mechanism of the natural product moracin-O derived MO-460 and its targeting protein hnRNPA2B1 on HIF-1α inhibition” (Experimental & Molecular Medicine, 2019).
“Also recorded” adds a separate entry of the source.

Key:
[1] = target: T1, hnRNPA2B1 GRD (202–353 aa) (Homo sapiens, UniProt P22626); experiment: BLItz association-dissociation binding assay, GRD of hnRNPA2B1; details: 6XHis tagged protein, Con. 5 uM, biotin-MO-460 on streptavidin tip
T1 construct: 202–353 aa; His; made in house; host or cells: bacteria (pET28A vector)
Method: The binding capacity of hnRNPA2B1 to Biotin-MO-460 was also analyzed using a BLItz™ (Fortebio, Inc., CA, US) instrument with a streptavidin-coated biosensor tip (Pall, USA). The streptavidin-coated tips were pre-wetted for 10 min in an incubation buffer (10 mM HEPES pH 7.4, 1% BSA and 0.05% Tween 20). The streptavidin-coated tips were immobilized with 1 μM Biotin-MO-460 in incubation buffer (10 mM HEPES pH 7.4, 1% BSA and 0.05% Tween 20) for 5 min. […] The concentrations were then incubated with HEPES for another 3 min to desorb the protein. Analysis of the accurate and precise kinetic constants was performed by the BLItz data analysis software (BLItz Pro 1.1).

HIF-1α in Hep3B cells = experiment: HIF-1α protein accumulation under CoCl2 mimetic hypoxia (immunostaining and western blotting); format: cell-based, human
HIF-1α = HIF-1α accumulation under real hypoxia (1% oxygen), western blotting and immunostaining; format: cell-based, human; details: 24 h
Method: For immunofluorescence observation, Hep3B cells were seeded on microplates at 2 or 5 × 10^4 cells/mL and cultured for 18 h. […] The medium in the microplate wells was then removed and cells were fixed with 3.7% formaldehyde in PBS for 15 min then permeabilized for 5 min with 100% cold MeOH. Cells were washed with PBS containing 1% bovine serum albumin (PBS-1% BSA), and then treated with 5% bovine serum albumin for 20 min. The cells in each well were treated with HIF-1α antibody in PBS-0.1% BSA then placed in a humidified atmosphere of 5% CO2 at 37 °C and incubated for 60 min. After being washed with PBS-0.1% BSA, treated wells of HIF-1α were incubated with Alexa Fluor 488-conjugated mouse anti-IgG antibody in PBS-0.1% BSA then incubated at room temperature for 60 min. After being washed with PBS-0.1% BSA, the dish wells were overlaid with Hoechst 33342 for 5 min at room temperature and then washed with PBS-0.1% BSA. Fluorescence was photographed with an inverted ECLIPSE Ti-U microscope (Nikon Corporation, Japan).

Hep3B cells = experiment: Stress granule formation (immunostaining of hnRNPA2B1 and TIA-1); format: cell-based, human; details: mimetic hypoxia
HIF-1α protein = target: T2, HIF-1α protein (Homo sapiens, UniProt Q16665); experiment: Affinity capture with Biotin-MO-460 followed by LC/MS; format: binding; details: two rounds of the affinity capture experiment
T2 construct: endogenous in cells; host or cells: Hep3B (cytosolic and nuclear lysates, CoCl2-treated)
Method: We synthesized biotinylated MO-460 using a recently reported method. Fractionation and enrichment of cytosol and nuclei were performed as described previously. Briefly, Hep3B (Human hepatocyte cancer cell line) was harvested and washed twice with PBS after treatment with 200 μM of CoCl2 for 24 h, and then resuspended in lysis buffer [10 mM HEPES pH 7.9, 10 mM KCl, 0.1 mM EGTA, 0.1 mM EDTA, 0.5 mM PMSF, 0.025% 2-Mercaptoethanol, 1.6% NP-40, and protease inhibitor cocktail]. After cell lysis and homogenization by vortexing for 10 s, the insoluble material was removed by centrifugation. The supernatant was collected as a cytosol-enriched lysate. The pellet was resuspended in nuclear extract buffer [20 mM HEPES pH 7.9, 400 mM NaCl, 1 mM EGTA, 1 mM EDTA, 1 mM DTT, 1 mM PMSF, protease inhibitor cocktail]. The pellet was then vortexed vigorously at 4 °C to separate the insoluble material. After the cytosol-enriched lysate (97.9 μg of protein) and the nuclei-enriched lysate (67.5 μg of protein) were precleared by incubation with NeutrAvidine^TM agarose-resins (Thermo Scientific) that were conjugated with biotin-linker (cytosol fraction: 600 μM, nuclear fraction: 1200 μM) for 12 h at 4 °C, the cleared cell lysate was incubated with NeutrAvidine^TM agarose-resins bound -Biotin-MO-460 (cytosol fraction: 200 μM, nuclear fraction: 400 μM) for 16 h at 4 °C, respectively. […]

T2 sequence (Q16665 whole entry): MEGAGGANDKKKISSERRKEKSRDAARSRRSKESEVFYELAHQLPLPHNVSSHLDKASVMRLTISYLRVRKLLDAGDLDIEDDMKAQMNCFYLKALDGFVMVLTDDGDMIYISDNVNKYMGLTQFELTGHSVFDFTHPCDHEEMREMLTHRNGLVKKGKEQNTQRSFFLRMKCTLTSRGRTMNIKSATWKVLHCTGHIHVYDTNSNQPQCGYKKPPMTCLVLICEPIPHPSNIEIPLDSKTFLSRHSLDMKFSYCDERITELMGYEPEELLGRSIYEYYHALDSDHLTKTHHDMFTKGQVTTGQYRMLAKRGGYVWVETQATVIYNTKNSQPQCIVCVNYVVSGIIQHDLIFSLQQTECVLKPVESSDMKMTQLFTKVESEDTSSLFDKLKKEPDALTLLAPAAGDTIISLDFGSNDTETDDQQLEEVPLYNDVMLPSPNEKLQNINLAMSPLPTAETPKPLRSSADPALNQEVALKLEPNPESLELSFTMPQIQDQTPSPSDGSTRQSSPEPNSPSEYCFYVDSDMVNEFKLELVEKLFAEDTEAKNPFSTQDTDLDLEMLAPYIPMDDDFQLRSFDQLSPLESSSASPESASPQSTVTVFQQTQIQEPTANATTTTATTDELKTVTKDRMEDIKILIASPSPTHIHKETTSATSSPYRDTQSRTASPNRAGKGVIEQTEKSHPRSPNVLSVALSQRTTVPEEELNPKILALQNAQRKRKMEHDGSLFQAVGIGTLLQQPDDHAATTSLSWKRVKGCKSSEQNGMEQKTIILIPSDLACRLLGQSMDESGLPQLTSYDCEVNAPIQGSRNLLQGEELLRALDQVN
T1 sequence (P22626 202-353): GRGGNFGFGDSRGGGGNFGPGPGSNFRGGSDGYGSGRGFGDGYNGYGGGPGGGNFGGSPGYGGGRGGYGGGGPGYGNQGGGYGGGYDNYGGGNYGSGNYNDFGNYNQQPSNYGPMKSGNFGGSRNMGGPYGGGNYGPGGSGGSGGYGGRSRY

CC(C)(O)[C@H]1Cc2cc3cc(-c4ccc(O)cc4)oc3cc2O1 [MO-460, (R)-4-[6-(1-Hydroxy-1-methylethyl)-5,6-dihydro-benzo[1,2-b;5,4-b’]difuran-2-yl]-phenol]
Kd [1]: 6.6 µM | accumulation of HIF-1α protein (HIF-1α in Hep3B cells; CoCl2 mimetic hypoxia, 24 h): inhibits the accumulation of HIF-1α protein; also recorded: reduced the level of HIF-1α protein in a concentration-dependent manner; also recorded: completely eliminated the accumulation of HIF-1α | amount of hnRNPA2B1 (HIF-1α in Hep3B cells; western blot): no effect | HIF-1α accumulation (HIF-1α): reduction in HIF-1α accumulation | stress granule formation, co-localization with TIA-1 (Hep3B cells): causes formation of cytoplasmic dots in hnRNPA2B1 | binding to HIF-1α protein (HIF-1α protein): did not bind to HIF-1α protein
